Laboratory results from patent US11147815B2, “Compositions and methods for treating diseases associated with uncontrolled inflammatory responses” (SF17 THERAPEUTICS, INC., priority 2018, dated 2021).

Tests used:
TRIM8 = target: T1, TRIM8 (Homo sapiens, UniProt Q9BZR9); assay: Cell-based screen for TRIM8 inhibition: CXCL9, CXCL10 and CXCL11 accumulation in IFN-γ-stimulated THP-1 cells; conditions: for Normalized Average of IP-10/CXCL10 / Normalized Average of MIG/CXCL9 / Normalized Average of I-TAC/CXCL11 / Effect on inflammatory response (CXCL9, CXCL10, CXCL11 after IFN-γ): THP-1 cells; for Normalized Average of IP-10/CXCL10 / Normalized Average of MIG/CXCL9 / Normalized Average of I-TAC/CXCL11: 10 µM compound 4 hours, then 200 U human IFN-γ, 12 hours, flow cytometer; for Normalized Average of IP-10/CXCL10 / Normalized Average of MIG/CXCL9: degree of change from control (<1 inhibition, >1 enhancement), triplicate; for Normalized Average of I-TAC/CXCL11: degree of change from control, high background in read-out; for Effect on inflammatory response (CXCL9, CXCL10, CXCL11 after IFN-γ) / TRIM8 inhibitor or enhancer activity found on testing: summary in words; for TRIM8 inhibitor or enhancer activity found on testing: Example 4
T1 construct: 20,000 THP-1 cells; endogenous in cells; host or cells: THP-1
T1 sequence (Q9BZR9 1-551): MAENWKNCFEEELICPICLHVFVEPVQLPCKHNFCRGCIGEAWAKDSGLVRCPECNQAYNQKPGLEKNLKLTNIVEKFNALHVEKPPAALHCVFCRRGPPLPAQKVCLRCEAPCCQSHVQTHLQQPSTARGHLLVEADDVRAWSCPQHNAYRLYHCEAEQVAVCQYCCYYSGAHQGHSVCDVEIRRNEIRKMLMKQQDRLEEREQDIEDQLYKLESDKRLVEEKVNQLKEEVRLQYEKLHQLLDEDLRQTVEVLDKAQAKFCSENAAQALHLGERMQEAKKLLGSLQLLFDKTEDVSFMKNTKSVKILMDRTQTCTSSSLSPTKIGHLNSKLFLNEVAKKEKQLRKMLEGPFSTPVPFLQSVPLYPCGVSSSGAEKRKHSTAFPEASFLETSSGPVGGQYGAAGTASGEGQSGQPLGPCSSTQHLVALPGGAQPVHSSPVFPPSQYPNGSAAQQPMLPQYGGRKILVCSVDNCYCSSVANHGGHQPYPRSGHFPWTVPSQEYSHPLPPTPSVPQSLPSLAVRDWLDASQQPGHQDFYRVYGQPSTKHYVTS
Protocol: (§1) A library of small molecule compounds comprising an E2-RING domain or a RING-RING domain was screen for TRIM8 inhibition in a cell-based assay. 20,000 THP-1 cells (a human myeloid cell line which imitates human monocyte cell inflammatory behavior and responds to IFN-γ stimulation by expressing […] CXCL9, CXCL10 and CXCL11) were incubated with […] of each compound (dissolved in DMSO) for 4 hours, then stimulated with 200 U (units) of human IFN-γ. The effect of the stimulation as measured by changes in accumulation levels of the cytokines CXCL9, CXCL10 and CXCL11 in extracellular fluid was determined by flow cytometer after 12 hours and compared to control (IFN-γ stimulation with no compound).
Each compound is identified by its ChemDiv catalog number.
Values in Table 1 are reported as degree of change from the control state. Values less than 1 indicate inhibition of cytokine response, and values greater than 1 indicate enhancement of cytokine response. Smaller values indicate a higher degree of inhibition. Values closer to zero indicate profound inhibition of cytokine response, and thus significant suppression of inflammatory responses conferred via inhibition of TRIM8 by the tested compounds. CXCL11 values are higher due to a high background in their read-out (relatively high CXCL11 values indicate […]). Standard errors reflect the degree of variation seen in the triplicate tests for each compound.

THP-1 cells = assay: Cell count in the THP-1 screening assay; assay type: cell-based, human; conditions: 10 µM compound, IFN-γ stimulation, normalized to control
Protocol: as §1

Structure (SMILES)	Normalized Average of IP-10/CXCL10 (TRIM8)	Normalized Average of MIG/CXCL9 (TRIM8)	Normalized Average of I-TAC/CXCL11 (TRIM8)	Effect on inflammatory response (CXCL9, CXCL10, CXCL11 after IFN-γ) (TRIM8)	TRIM8 inhibitor or enhancer activity found on testing (TRIM8)	Average Normalized Cell Count (THP-1 cells)
CCc1cccc2c(C(CC(=O)N3CCN(c4ccc([N+](=O)[O-])cc4)CC3)c3cccc4c3OCO4)c[nH]c12 (stereo not drawn) [Compound 130, 3-(2H-1,3-benzodioxol-4-yl)-3-(7-ethyl-1H-indol-3-yl)-1-[4-(4-nitrophenyl)piperazin-1-yl]propan-1-one]	0.794	7.574	0.806	significant enhancement of inflammatory response	potent TRIM8 enhancer	1.135
O=C(NCCCc1ccccc1)c1n[nH]c2c1CN(C(=O)c1cc(F)ccc1F)CC2 [Compound 120, 5-(2,5-difluorobenzoyl)-N-(3-phenylpropyl)-1H,4H,5H,6H,7H-pyrazolo[4,3-c]pyridine-3-carboxamide]	0.468	0.188	0.426	significant inhibition of inflammatory response	TRIM8 inhibitor	0.960
COc1ccc(N2CCN(C(=O)c3cc4ccc5cccnc5c4[nH]3)CC2)cc1 [Compound 81, 1-(4-methoxyphenyl)-4-{1H-pyrrolo[3,2-h]quinoline-2-carbonyl}piperazine]	0.334	0.138	0.617	significant inhibition of inflammatory response	strong inhibitor of TRIM8	1.070
COc1ccc(CN2C(=O)NC(=O)/C(=C\c3cccc4ccccc34)C2=O)cc1 [Compound 17, (5E)-1-[(4-methoxyphenyl)methyl]-5-[(naphthalen-1-yl)methylidene]-1,3-diazinane-2,4,6-trione]	3.640	2.545	4.410	significant enhancement of inflammatory response	potent TRIM8 enhancer	1.435
COc1ccc(-c2n[nH]c3c2C(c2ccccc2)C2=C(CC(C)(C)CC2=O)N3)cc1 (stereo not drawn) [Compound 76, 3-(4-methoxyphenyl)-7,7-dimethyl-4-phenyl-1H,4H,5H,6H,7H,8H,9H-pyrazolo[3,4-b]quinolin-5-one]	0.352	0.085	<LLOD	significant inhibition of inflammatory response	powerful TRIM8 inhibitor	1.196
COc1ccc(Sc2ccc(=O)n(-c3ccc(C(=O)NCCCc4ccccc4)cc3)n2)cc1 [Compound 88, 4-{3-[(4-methoxyphenyl)sulfanyl]-6-oxo-1,6-dihydropyridazin-1-yl}-N-(3-phenylpropyl)benzamide]	0.127	0.019	0.744	significant inhibition of inflammatory response	highly potent TRIM8 inhibitor	0.837
